Test system: human pancreatic lipase
Experiment: pH dependence of human pancreatic lipase activity in the presence of bile acids (diglyceride substrate, UV method)
Assay type: biochemical
Experimental: After weighing 1,2-dioleoyl glycerol (DODG) (manufactured by Nippon Fine Chemical Co., Ltd.) to attain a concentration of 9.32 mmol/L when dissolved, 1% polyoxyethylene (10) nonyl phenyl ether (NPE) (manufactured by Wako Pure Chemical Industries Ltd.) containing 1.66 mmol/L of MES (manufactured by Dojindo Laboratories) was added thereto to be dissolved therein by stirring at 37° C. for 2 hours, and the resultant was allowed to stand still in ice for 2 hours or more. The thus obtained solution was used as a substrate original liquid.
The above-described diglyceride original liquid was used for preparing a “substrate stock solution” having the following composition:
A “first reaction solution (R-1)” having the following composition was prepared:
A “second reaction solution (R-2)” having the following composition was prepared:
A “second reaction solution (R-2) for sample blank” having the following composition was prepared:
A mixture of the substrate stock solution and the R-1 in a proportion of 1:2 was used as a first reagent. The R-2 was directly used as a second reagent. As a sample, pooled serum or a control sample (a control containing a pancreatic lipase) was used. A proportion in amount among the sample, the first reagent and the second reagent was set as sample:first reagent:second reagent of 0.01 ml:0.18 ml:0.06 ml. The sample was added to the first reagent, the resultant mixture was heated at 37° C. for 5 minutes, the second reagent was added thereto, and a change rate of an absorbance at 340 nm based on reduced NADP was obtained at 37° C. from 3 minutes after the addition of the second reagent to 4 minutes after the addition, and then, the lipase activity was calculated by using a molecular extinction coefficient of 6300 L/mol·cm of the reduced NADP. Besides, as a sample blank, saline was used instead of a sample, an absorbance was measured by using the reagent for sample blank obtained by removing MGLPII from the second reagent, and a difference between the thus measured two values was defined as an enzyme activity value. For the measurement, Hitachi automatic analyzer Model H7170 or H7080 was used.
As a conjugated bile acid to be added to the R-1, sodium taurodeoxycholate (NaTDCA), sodium glycodeoxycholate (NaGDCA), sodium glycochenodeoxycholate (NaGCDCA), sodium taurochenodeoxycholate (NaTCDCA), sodium glycocholate (NaGCA), sodium taurocholate (NaTCA) and sodium tauroursodeoxycholate (NaTUDCA) all in a concentration of 40 mmol/L were selected, the R-1 was adjusted, by using BES (manufactured by Dojindo Laboratories) respectively to pH 6.8, 7.0, 7.2, 7.4, 7.8, and 8.0, and the human pancreatic lipase activity was measured by using these. The pH of the R-2 was adjusted to be equal to that of the R-1.
It is noted that the concentration of each non-conjugated bile acid was set to be 24 mmol/L in the R-1. Besides, BES was used for adjusting pH to 7.2, 7.6, 7.8 and 8.0, and Bicine was used for adjusting pH to 8.2 and 8.5.
Similarly to Example 1, a mixture of the substrate stock solution and the R-1 in a proportion of 1:2 was used as a first reagent. Except for this, the measurement was performed in the same manner as in Example 1.
Besides, NaTCA was also combined with a conjugated bile acid, NaTDCA, to examine the pH for giving a maximum value of the human pancreatic lipase activity (the apparent optimum pH). It is noted that a BES buffer was used for adjusting pH to 6.9, 7.2 and 7.7, and a Bicine buffer was used for adjusting pH to 7.95 and 8.2. In each of the combinations of NaGCA/NaDCA, NaTCA/NaDCA, NaTUDCA/NaDCA and NaTCA/NaTDCA, the concentration of each bile acid was set to 20 mmol/L in the R-1. With respect to the combination of NaTCA and NaTDCA, a concentration of 40 mmol/L of NaTDCA was used as a control.
The compositions of the reagents and the measurement operation were the same as those of Example 2.

With C[C@H](CCC(=O)NCCS(=O)(=O)[O-])[C@H]1CC[C@H]2[C@@H]3CC[C@@H]4C[C@H](O)CC[C@]4(C)[C@H]3C[C@H](O)[C@]12C.[Na+] [NaTDCA, sodium taurodeoxycholate] the “optimum pH” value (NaTDCA 40 mmol/L control of Example 2) was “about 7.1” and the “pH for giving a maximum value of the human pancreatic lipase activity (apparent optimum pH)” value (pooled serum, conjugated bile acid singly, 40 mmol/L in R-1, BES pH 6.8-8.0) was “about 7”.

— patent publication US10000791B2, “Measurement method for human pancreatic lipase activity” (ASAHI KASEI PHARMA CORPORATION, priority 2013, dated 2018)
